Measurements: patent publication US20160077079A1, “THE CHILDREN'S HOSPITAL OF PHILADELPHIA” (THE CHILDREN'S HOSPITAL OF PHILADELPHIA, priority 2013, published 2016)

Columns and labels:
NCI-H716 = experiment: GLP-1 secretion in NCI-H716 L-cells, GLP-1 concentration by ELISA; assay type: cell-based, human; conditions: NCI-H716 cells pre-treated 48 hours with inhibitor
Excerpt: Glucagon-like peptide-1 (GLP-1) has numerous physiological functions, including enhancement of glucose-stimulated insulin secretion, stimulation of β-cell anti-apoptosis and proliferation and inhibition of glucagon secretion, food intake and gastric emptying. These antidiabetic properties of GLP-1 have generated intense interest in the use of this short peptide and its agonists for the treatment of patients with type 2 diabetes. A better understanding of the underlying mechanism of GLP-1 secretion may lead to novel approaches used for the treatment of type 2 diabetes. TCF7L2 is the most strongly associated locus with type 2 diabetes and has been known to bind with the promoter region of the proglucagon gene for many years. […] As such, we investigated if existing PARP-1 inhibitors, previously tested in oncology studies, could have a GLP-1 agonist effect. We leveraged the standard human L-cell line, NCI-H716, for GLP-1 secretion assessment to investigate this possible link. We pre-treated the cells for 48 hours with three different PARP-1 inhibitors, Olaparib, Rucaparib and Iniparib, with or without glucose stimulation (16.8 mM). We measured the resulting GLP-1 concentration using an ELISA kit (Millipore).

[1] = test system: SNP rs7903146 region of TCF7L2 (HCT116 nuclear extracts); experiment: SILAC oligo pull-down quantifying protein binding to the SNP rs7903146 oligonucleotide with and without insulin treatment; assay type: cell-based, human; conditions: HCT116 cells, 1 uM insulin for 1 hour
Procedure: Human HCT 116 cells were cultured in DMEM (4.5 g/l glucose, 10% FCS, 100 U/mL penicillin and 100 íg/mL streptomycin). For insulin stimulation experiments, cells were treated with 1 uM insulin for 1 hour. For SILAC experiments, Cultures were grown according to standard cell-culture procedures in SILAC-light and SILAC-heavy labeled Dulbecco's Modified Eagle Medium (DMEM, ThermoFisher) supplied with 10% dialyzed fetal bovine serum (FBS), ^13C6-lysine and ^13C6-arginine. Cells were washed by cold phosphate-buffered saline (PBS) and harvested by scraping, centrifugation for 5 min at 5000 rpm at 4° C. 10^8 Cells were lysed in 250 ul low salt buffer (10 mM HEPES, 1.5 mM MgCl2, 10 mM KCl, 0.5% NP-40, proteasome inhibitor, phosphatase inhibitor, 10% glycerol, pH 7.9) by incubation on ice for 20 min with vortex 10 seconds per 5 minutes. The nuclei were separated from cytoplasmic fraction by centrifugation 10,000 rpm for 1 min at 4° C. The nuclei pellets were washed once by cold low salt buffer, harvested by centrifugation. […]
The sample was digested with trypsin and analyzed with nanoLC/MS/MS at the Penn Proteomics Core. […] The data were analyzed with Sequest (ThermoFinnigan, San Jose, Calif.; version SRF v. 5). […] The quantification of the SILAC peaks was performed with ProteolQ with customized modification so that the software can use the zoom scanned SLICA peaks for quantification.
To investigate dynamic binding of Parp-1, ATP-dependent RNA helicase A and Thrap3 for the SNP rs7903146 region, we used stable isotope labeling with amino acids in cell culture (SILAC) (Ong, Blagoev et al. 2002) to quantify the binding affinity changes between with and without insulin treatment.
The heavy cells were isotopically labeled in SILAC medium supplied with ^13C6-lysine and ^13C6-arginine and treated with insulin, while the light cells […] served as a control. […] With this approach, we quantified the relative protein abundances including Parp-1, ATP-dependent RNA helicase A and Thrap3 between treatment and without treatment of insulin.

[2] = absence of glucose, compared with glucose-elevated level
[3] = with glucose stimulation (16.8 mM)

Compound	GLP-1 secretion (GLP-1 concentration by ELISA) (NCI-H716; [2])	GLP-1 secretion (GLP-1 concentration by ELISA) (NCI-H716; [3])	ATP-dependent RNA helicase A binding to rs7903146 oligo, increase upon insulin stimulation [1]	Parp-1 binding to rs7903146 oligo, up-regulation upon insulin stimulation [1]	Thrap3 binding to rs7903146 oligo, increase upon insulin stimulation [1]
NC(=O)c1ccc(I)c([N+](=O)[O-])c1 [Iniparib]	equal or greater level of GLP-1 secretion	elevated further			
O=C(c1cc(Cc2n[nH]c(=O)c3ccccc23)ccc1F)N1CCN(C(=O)C2CC2)CC1 [Olaparib]	equal or greater level of GLP-1 secretion	elevated further			
CNCc1ccc(-c2[nH]c3cc(F)cc4c3c2CCNC4=O)cc1 [Rucaparib]	equal or greater level of GLP-1 secretion	elevated further			
insulin			12 fold	20%	7 fold
